Where a name gives a salt, the structure may show the parent alone.
What was measured:
Target C = test: HiBiT protein abundance assay, Target C (K562 HiBiT knock-in cells); type: cell-based, human; conditions: 24 hours
Summary of the method: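 K562 knock-in cells (10000/well, IMDM+1% FBS) treated 24 h at 37 °C with 10-point 3-fold dilutions, top final 10 μM, DMSO ≤0.25%. HiBiT lytic luminescence read; response normalized to unmodified K562 and DMSO-treated controls. IC50 interpolated at 50% abundance by four-parameter logistic fit.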

HiBiT-tagged HTT protein = test: HiBiT protein abundance assay, HTT (K562 HiBiT knock-in cells); type: cell-based, human; conditions: 24 hours
Summary of the method: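 K562 cells with endogenous HiBiT knock-in tag, 10-point 3-fold dilutions (top 10 μM final, ≤0.25% DMSO), 24 h at 37 °C. Lytic Nano-Glo HiBiT luminescence, normalized to DMSO and unmodified K562 baselines; IC50 is concentration giving 50% protein abundance from four-parameter fit.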

K562 cells = test: Cell Titer Glo 2.0 cell viability assay in K562 cells; conditions: 72 hours
HTT mRNA = test: Splicing RT-qPCR assay, HTT canonical (CJ) and alternative (AJ) junction mRNA; type: cell-based; conditions: Homo sapiens, A673 or K562 cells, 24 hours; for IC50: decrease in canonical junction mRNA; for AC50: increase in alternative junction mRNA
Summary of the method: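 Splice switching was scored by qPCR detection of the new alternative-exon junction (AJ) alongside the canonical junction (CJ). Cell lines A673 or K562 received compound 24 h, top dose 10 uM final.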

Compound | IC50 (Target C) [µM] | IC50 (HiBiT-tagged HTT protein) [µM] | Viability (K562 cells) | IC50 (HTT mRNA) [µM] | AC50 (HTT mRNA) [µM]
Cc1cn2cc(NC(=O)c3ccc(N4CCNC(C)C4)c4ccnnc34)cc(F)c2n1 (centres unmarked) [Compound 128] | 0.1 to 1 | 0.1 to 1 | B (B represents 100-1000 nM) | 0.1 to 1 | 0.1 to 1
CCC1CN(c2ccc(C(=O)Nc3cc(F)c4nc(C)cn4c3)c3nnccc23)CCN1 (centres unmarked) [Compound 130] | 1 to 10 | 1 to 10 | B (B represents 100-1000 nM) | 1 to 10 | 1 to 10
Cc1cn2cc(NC(=O)c3ccc(N4CC5(CNC5)C4)c4ccnnc34)cc(F)c2n1 [Compound 131] | 1 to 10 | 0.1 to 1 | B (B represents 100-1000 nM) | 1 to 10 | 1 to 10
Cc1cn2cc(NC(=O)c3ccc(N4CCC(N5CCCC5)C4)c4ccnnc34)cc(F)c2n1 (centres unmarked) [Compound 133] | 1 to 10 | 1 to 10 | C (C represents 1000-9999 nM) | 1 to 10 | 1 to 10
Cc1cn2cc(NC(=O)c3ccc(N4CCC(N(C)C)C4)c4ccnnc34)cc(F)c2n1 (centres unmarked) [Compound 134] | 1 to 10 | 1 to 10 | B (B represents 100-1000 nM) | 1 to 10 | 1 to 10
Cc1cn2cc(NC(=O)c3ccc(N4CCC(N(C)C)CC4)c4ccnnc34)cc(F)c2n1 [Compound 137] | 0.1 to 1 | 0.1 to 1 | A (A represents <100 nM) | 0.1 to 1 | 0.1 to 1
Cc1cn2cc(NC(=O)c3ccc(N4CCC(NC(C)(C)C)CC4)c4ccnnc34)cc(F)c2n1 [Compound 138] | 1 to 10 | 1 to 10 | C (C represents 1000-9999 nM) | 1 to 10 | 1 to 10
Cc1cn2cc(NC(=O)c3ccc(C4CCN(C)CC4)c4ccnnc34)cc(F)c2n1 [Compound 140] | > 10 | 0.1 to 1 | B (B represents 100-1000 nM) | 1 to 10 | 1 to 10
CCN1CCC(c2ccc(C(=O)Nc3cc(F)c4nc(C)cn4c3)c3nnccc23)CC1 [Compound 141] | 1 to 10 | 1 to 10 | C (C represents 1000-9999 nM) | 1 to 10 | 1 to 10
Cc1cn2cc(NC(=O)c3ccc(N4CCN[C@H](C)C4)c4ccnnc34)cc(F)c2n1 [Compound 146] | 1 to 10 | 0.1 to 1 | A (A represents <100 nM) | 0.1 to 1 | 0.1 to 1
Cc1cn2cc(NC(=O)c3ccc(N4CCN(C)[C@H](C)C4)c4ccnnc34)cc(F)c2n1 [Compound 149] | 1 to 10 | 1 to 10 | B (B represents 100-1000 nM) | 1 to 10 | 1 to 10
Cc1cn2cc(NC(=O)c3ccc(N4CCN(C)[C@@H](C)C4)c4ccnnc34)cc(F)c2n1 [Compound 150] | 1 to 10 | 1 to 10 | B (B represents 100-1000 nM) | 1 to 10 | 1 to 10
CC[C@@H]1CN(c2ccc(C(=O)Nc3cc(F)c4nc(C)cn4c3)c3nnccc23)CCN1 [Compound 151] | 1 to 10 | 1 to 10 | B (B represents 100-1000 nM) | 1 to 10 | 1 to 10
CC[C@H]1CN(c2ccc(C(=O)Nc3cc(F)c4nc(C)cn4c3)c3nnccc23)CCN1 [Compound 152] | > 10 | 1 to 10 | B (B represents 100-1000 nM) | 1 to 10 | 1 to 10
Cc1cn2cc(NC(=O)c3ccc(N4CCN5CCC[C@@H]5C4)c4ccnnc34)cc(F)c2n1 [Compound 153] | 1 to 10 | 1 to 10 | B (B represents 100-1000 nM) | 0.1 to 1 | 0.1 to 1
Cc1cn2cc(NC(=O)c3ccc(N4CCN5CCC[C@H]5C4)c4ccnnc34)cc(F)c2n1 [Compound 154] | 1 to 10 | 1 to 10 | B (B represents 100-1000 nM) | 1 to 10 | 1 to 10
Cc1cn2cc(NC(=O)c3ccc(N4C[C@H]5C[C@@H]4C5N(C)C)c4ccnnc34)cc(F)c2n1 (some centres unmarked) [Compound 155] | > 10 | > 10 | B (B represents 100-1000 nM) | > 10 | > 10
Cc1cc2c(N3CCNCC3)ccc(C(=O)Nc3cc(F)c4nc(C)cn4c3)c2nn1 [Compound 159] | 1 to 10 | 0.1 to 1 | A (A represents <100 nM) | 0.1 to 1 | 0.1 to 1
Cc1cn2cc(NC(=O)c3ccc(N4C[C@@H](C)N[C@@H](C)C4)c4ccnnc34)cc(F)c2n1 [Compound 161, 5-(3,5-dimethylpiperazin-1-yl)-N-{8-fluoro-2-methylimidazo[1,2-a]pyridin-6-yl}cinnoline-8-carboxamide 2,2,2-trifluoroacetate] | 1 to 10 | 1 to 10 | B (B represents 100-1000 nM) | 1 to 10 | 1 to 10
Cc1ccc2c(N3CCNCC3)ccc(C(=O)Nc3cc(F)c4nc(C)cn4c3)c2n1 [Compound 162, N-{8-fluoro-2-methylimidazo[1,2-a]pyridin-6-yl}-2-methyl-5-(piperazin-1-yl)quinoline-8-carboxam-ide, trifluoroacetic acid] | 1 to 10 | 0.1 to 1 | B (B represents 100-1000 nM) | 1 to 10 | 1 to 10
CC(=O)c1cc(NC(=O)c2ccc(N3CCNCC3)c3ccnnc23)cn2cc(C)nc12 [Compound 163, N-{8-acetyl-2-methylimidazo[1,2-a]pyridin-6-yl}-5-(piperazin-1-yl)cinnoline-8-carboxamide] | > 10 | > 10 | C (C represents 1000-9999 nM) | > 10 | > 10
Cc1cn2cc(NC(=O)c3ccc(N4CCNCC4)c4ccnnc34)nc(C)c2n1 [Compound 164, N-{2,8-dimethylimidazo[1,2-a]pyrazin-6-yl}-5-(piperazin-1-yl)cinnoline-8-carboxamide 2,2,2-trifluoroacetate] | > 10 | 1 to 10 | B (B represents 100-1000 nM) | > 10 | > 10
Cc1cn2cc(NC(=O)c3ccc(N4CCNCC4)c4cccnc34)cc(F)c2n1 [Compound 165, N-{8-fluoro-2-methylimidazo[1,2-a]pyridin-6-yl}-5-(piperazin-1-yl)quinoline-8-carboxamide] | 1 to 10 | 0.1 to 1 | A (A represents <100 nM) | 1 to 10 | 0.1 to 1
Cc1cn2cc(NC(=O)c3ccc(N4CCNCC4)c4nnccc34)cc(F)c2n1 [Compound 166, N-(8-fluoro-2-methylimidazo[1,2-a]pyridin-6-yl)-8-(piperazin-1-yl)cinnoline-5-carboxamide 2,2,2-trifluoroacetate] | > 10 | > 10 | D (D represents greater than 10 μM in K562 cells) | > 10 | > 10
Cc1cn2cc(NC(=O)c3ccc(N4CCNCC4)c4ccnnc34)cc(C#N)c2n1 [Compound 167, N-{8-cyano-2-methylimidazo[1,2-a]pyridin-6-yl}-5-(piperazin-1-yl)cinnoline-8-carboxamide trifluoroacetic acid salt] | 1 to 10 | 1 to 10 | B (B represents 100-1000 nM) | 1 to 10 | > 10

— patent US20240409536A1, “COMPOUNDS AND METHODS FOR MODULATING SPLICING” (REMIX THERAPEUTICS INC., priority 2021, published 2024)
